In patent publication US8324190B2, “Treatment of proliferative disorders with amino-substituted (E)-2,6- dialkoxystyryl 4-substituted benzylsulfones” (Temple University—Of The Commonwealth System of Higher …, priority 2002, dated 2012):
Counter-ions that a name gives are not always drawn.

Experiments:
Test in all cases: Tumor cell viability assay, Trypan blue exclusion
Assay type in all cases: cell-based
Details in all cases: cell viability after 96 hours
[1] = tested on: breast adenocarcinoma cell line BT-20
Method: (§1) BT-20 is an estrogen-unresponsive cell line. NIH/3T3 and HFL are normal murine and human fibroblasts, respectively. BT-20, DLD-1 and H157 were grown in Dulbecco's modified Eagle's medium (DMEM) containing 10% fetal bovine serum supplemented with penicillin and streptomycin. DU145 was cultured in RPMI with 10% fetal bovine serum containing penicillin and streptomycin. NIH3T3 and HFL cells were grown in DMEM containing 10% calf serum supplemented with penicillin and streptomycin. Cells were plated at density levels of 1.0×10^5 cells per well in six-well plates. Cell cultures were maintained at 37° C. in a humidified atmosphere of 5% CO2. Cells were treated with compounds of the invention at various concentrations. Cell viability was determined after 96 hours by the Trypan blue exclusion method. […] The number of viable cells remaining after 96 hours of treatment was determined using hemacytometer following trypan blue staining. The number of viable cells has been plotted as the percent of Vehicle treated (control) cells.

[2] = tested on: colorectal carcinoma cell line DLD-1
Method: as §1

[3] = tested on: prostate carcinoma cell line DU-145
Method: as §1

[4] = tested on: non-small cell lung carcinoma cell line H157
Method: as §1

| Molecule | IC50 [1] [µM] | IC50 [2] [µM] | IC50 [3] [µM] | IC50 [4] [µM] |
| --- | --- | --- | --- | --- |
| COC(=O)CCC(=O)Nc1cc(CS(=O)(=O)/C=C/c2c(OC)cc(OC)cc2OC)ccc1OC [Example 44, (E)-2,4,6-trimethoxystyryl-3-(methylsuccinamido)-4-methoxy-benzylsulfone] | < 10 | < 10 | < 10 | < 10 |
| COc1cc(OC)c(/C=C/S(=O)(=O)Cc2ccc(OC)c(NC(=O)C(C)O)c2)c(OC)c1 (centres unmarked) [Example 27, (E)-2,4,6-Trimethoxystyryl-3-(2-hydroxypropionamido)-4-methoxy benzylsulfone] | < 10 | < 10 | < 10 | < 10 |
| COc1cc(OC)c(/C=C/S(=O)(=O)Cc2ccc(OC)c(NC(=O)C(C)(C)OC(C)=O)c2)c(OC)c1 [Example 31, (E)-2,4,6-trimethoxystyryl-3-(2-methyl-2-acetoxypropionamido)-4-methoxybenzyl-sulfone] | < 10 | < 10 | < 10 | < 10 |
| COc1cc(OC)c(/C=C/S(=O)(=O)Cc2ccc(OC)c(NC(=O)CN(C)C)c2)c(OC)c1 [Example 21, (E)-2,4,6-trimethoxystyryl-3-(dimethylaminoacetamido)-4-methoxybenzylsulfone] | < 10 | < 10 | < 10 | < 10 |
| COc1cc(OC)c(/C=C/S(=O)(=O)Cc2ccc(OC)c(NC(=O)COC(C)=O)c2)c(OC)c1 [Example 26, (E)-2,4,6-trimethoxystyryl-3-(acetoxyacetamido)-4-methoxy-benzylsulfone] | < 10 | < 10 | < 10 | < 10 |
| COc1cc(OC)c(/C=C/S(=O)(=O)Cc2ccc(OC)c(NC(=O)C(F)(F)C(F)(F)C(=O)O)c2)c(OC)c1 [Example 48, (E)-2,4,6-Trimethoxystyryl-3-(2,2,3,3,tetrafluorosuccinamido)-4-methoxybenzylsulfone] | < 10 | < 10 | < 10 | < 10 |
| COc1cc(OC)c(/C=C/S(=O)(=O)Cc2ccc(OC)c(NCC(=O)O)c2)c(OC)c1 [Example 4, (E)-2,4,6-Trimethoxystyryl-3-(carboxymethylamino)-4-methoxy-benzylsulfone] | < 10 | < 10 | < 10 | < 10 |
| COc1cc(OC)c(/C=C/S(=O)(=O)Cc2ccc(OC)c(NC(=O)CCC(=O)O)c2)c(OC)c1 [Example 34, (E)-2,4,6-trimethoxystyryl-3-(succinamido)-4-methoxybenzyl-sulfone] | < 10 | < 10 | < 10 | < 10 |
| COc1cc(OC)c(/C=C/S(=O)(=O)Cc2ccc(OC)c(NS(=O)(=O)c3ccc([N+](=O)[O-])cc3[N+](=O)[O-])c2)c(OC)c1 [Example 19, (E)-2,4,6-Trimethoxystyryl-3-(2,4-dinitrobenzenesulfamyl)-4-methoxybenzylsulfone] | < 10 | < 10 | < 10 | < 10 |
| COc1cc(OC)c(/C=C/S(=O)(=O)Cc2ccc(OC)c(NC(=O)C(C)(C)O)c2)c(OC)c1 [Example 30, (E)-2,4,6-trimethoxystyryl-3-(2-methyl-2-hydroxypropion-amido)-4-methoxybenzylsulfone] | < 10 | < 10 | < 10 | < 10 |
| COc1cc(OC)c(/C=C/S(=O)(=O)Cc2ccc(OC)c(NC(=O)CC(=O)O)c2)c(OC)c1 [Example 2, (E)-2,4,6-Trimethoxystyryl-3-(carboxyacetamido)-4-methoxy-benzylsulfone] | < 10 | < 10 | < 10 | < 10 |
| COc1cc(OC)c(/C=C/S(=O)(=O)Cc2ccc(OC)c(NC(=O)C(F)(F)F)c2)c(OC)c1 [Example 32, (E)-2,4,6-trimethoxystyryl-3-(trifluoroacetamido)-4-methoxy-benzylsulfone] | < 10 | < 10 | < 10 | < 10 |
| COc1cc(OC)c(/C=C/S(=O)(=O)Cc2ccc(OC)c(NC(=O)c3ccc(N4CCN(C)CC4)cc3)c2)c(OC)c1 [Example 23, (E)-2,4,6-trimethoxystyryl-3-[4-(4-methylpiperazin-1-yl)-benzamido]-4-methoxybenzylsulfone] | < 10 | < 10 | < 10 | < 10 |
| COC(=O)Nc1cc(CS(=O)(=O)/C=C/c2c(OC)cc(OC)cc2OC)ccc1OC [Example 41, (E)-2,4,6-trimethoxystyryl-3-(methoxycarbonylamino)-4-methoxy-benzylsulfone] | < 10 | < 10 | < 10 | < 10 |
| CC[N+](CC)(CC)CC(=O)Nc1cc(CS(=O)(=O)/C=C/c2c(OC)cc(OC)cc2OC)ccc1OC [Example 28, (E)-2,4,6-trimethoxystyryl-3-(triethylammoniumacetamido)-4-methoxybenzylsulfone] | < 10 | < 10 | < 10 | < 10 |
| COC(=O)C(F)(F)C(=O)Nc1cc(CS(=O)(=O)/C=C/c2c(OC)cc(OC)cc2OC)ccc1OC [Example 47, (E)-2,4,6-trimethoxystyryl-3-(methyl-2,2-difluoromalonamido)-4-methoxybenzylsulfone] | < 10 | < 10 | < 10 | < 10 |
| COc1cc(OC)c(/C=C/S(=O)(=O)Cc2ccc(OC)c(NC(=O)CCl)c2)c(OC)c1 [Example 7, (E)-2,4,6-Trimethoxystyryl-3-(chloroacetamido)-4-methoxybenzyl-sulfone] | < 10 | < 10 | < 10 | < 10 |
| COc1cc(OC)c(/C=C/S(=O)(=O)Cc2ccc(OC)c(NC(=O)C(C)OC(C)=O)c2)c(OC)c1 (centres unmarked) [Example 43, (E)-2,4,6-trimethoxystyryl-3-(2-acetoxypropionamido)-4-methoxybenzylsulfone] | < 10 | < 10 | < 10 | < 10 |
| COc1cc(OC)c(/C=C/S(=O)(=O)Cc2ccc(OC)c(NS(=O)(=O)C(F)(F)F)c2)c(OC)c1 [Example 33, (E)-2,4,6-trimethoxystyryl-3-(trifluoromethanesulfonamido)-4-methoxy-benzylsulfone] | < 10 | < 10 | < 10 | < 10 |
| COc1cc(OC)c(/C=C/S(=O)(=O)Cc2ccc(OC)c(NC(=O)c3ccc([N+](=O)[O-])cc3)c2)c(OC)c1 [Example 10, (E)-2,4,6-Trimethoxystyryl-3-(4-nitrobenzamido)-4-methoxy-benzylsulfone] | < 10 | < 10 | < 10 | < 10 |
| COc1cc(OC)c(/C=C/S(=O)(=O)Cc2ccc(OC)c(NC(=O)COC(=O)CCC(=O)O)c2)c(OC)c1 [Example 36, (E)-2,4,6-trimethoxystyryl-3-[3-(3-carboxypropanoyloxy)-acetamido]-4-methoxybenzylsulfone] | < 10 | < 10 | < 10 | < 10 |
| COc1cc(OC)c(/C=C/S(=O)(=O)Cc2ccc(OC)c(NC(=O)C[N+](CCO)(CCO)CCO)c2)c(OC)c1 [Example 29, (E)-2,4,6-trimethoxystyryl-3-[tri-(2-hydroxyethyl)ammonium]-acetamido-4-methoxybenzylsulfone] | < 10 | < 10 | < 10 | < 10 |
| COc1cc(OC)c(/C=C/S(=O)(=O)Cc2ccc(OC)c(NC(C)C(=O)O)c2)c(OC)c1 (centres unmarked) [Example 22, (E)-2,4,6-trimethoxystyryl-3-[(1-carboxyethyl)amino]-4-methoxybenzylsulfone] | < 10 | < 10 | < 10 | < 10 |
| COc1cc(OC)c(/C=C/S(=O)(=O)Cc2ccc(OC)c(NCCC(=O)O)c2)c(OC)c1 [Example 40, (E)-2,4,6-trimethoxystyryl-3-(2-carboxyethylamino)-4-methoxy-benzylsulfone] | < 10 | < 10 | < 10 | < 10 |
| COc1cc(OC)c(/C=C/S(=O)(=O)Cc2ccc(OC)c(NC(=O)c3ccccc3)c2)c(OC)c1 [Example 9, (E)-2,4,6-Trimethoxystyryl-3-(benzamido)-4-methoxybenzyl-sulfone] | < 10 | < 10 | < 10 | < 10 |
| COc1cc(OC)c(/C=C/S(=O)(=O)Cc2ccc(OC)c(NC(=N)N)c2)c(OC)c1 [Example 3, (E)-2,4,6-Trimethoxystyryl-3-(guanidino)-4-methoxybenzyl-sulfone] | < 10 | < 10 | < 10 | < 10 |
| (E)-2,4,6-Trimethoxystyryl-3-amino-4-methoxybenzylsulfone-L-serineamide [Example 14] | < 10 | < 10 | < 10 | < 10 |
| COc1cc(OC)c(/C=C/S(=O)(=O)Cc2ccc(OC)c(NC(=O)CN)c2)c(OC)c1 [Example 49, (E)-2,4,6-Trimethoxy-styryl-3-(aminoacetamido)-4-methoxy-benzylsulfone, hydrochloride] | < 10 | < 10 | < 10 | < 10 |
| COc1cc(OC)c(/C=C/S(=O)(=O)Cc2ccc(OC)c(NC(=O)CN3CCN(C)CC3)c2)c(OC)c1 [Example 8] | < 10 | < 10 | < 10 | < 10 |
